The subject of experiment [1] is mitochondrial complex II. Put plainly: Respiratory capacity related to complex II in myocardial mitochondria of HF model mice given ALA. In kind it is in vivo. The note with it: ALA 50 mg/L in drinking water (6 to 8 mg/kg/day), day 28 after operation. How it is done: (§1) A mitochondrial respiratory capacity (oxidative phosphorylation: OXPHOS) was measured by a high-resolution respiration measurement method. Specifically, isolated mitochondria (50 to 100 μg) or myocardial fibrous tissues (0.5 to 3 mg) after the cell membrane permeation treatment were used as a test sample, and measurement was performed using a mitochondrial oxygen activity/cell metabolic energy analyzing device (product name: “OROBOROS Oxygraph-2 k,” commercially available from Innsbruck) (hereinafter referred to as a “mitochondrial respiratory capacity measurement device” in some cases) under an environment at 37° C. according to the following protocol. An oxygen consumption amount was calculated using Datlab software, and in this case, correction was performed per tissue weight or per mitochondrion.
(4) In order to observe the respiration of OXPHOS of mitochondrial complex II alone, 0.5 μmol/L of rotenone, which is an inhibitor of mitochondrial complex I, was added and the oxygen consumption amount was measured (CII_OXPHOS).
(§2) The left anterior descending coronary artery of the heart of 10- to 12-week old male C57BL/6J mice (body weight of 23 to 26 g) was ligated to cause myocardial infarction (MI). […]

The subject of experiment [2] is mitochondrial complex I and mitochondrial complex II. Nature of the experiment: Respiratory capacity related to complex I and complex II in myocardial mitochondria of HF model mice given ALA. Type of experiment: in vivo. To be noted: ALA 50 mg/L in drinking water (6 to 8 mg/kg/day), day 28 after operation. How it is done:
as §1
(§3) (3) 10 mmol/L of succinic acid, which is a substrate related to mitochondrial complex II, was added, and the oxygen consumption amount was measured (CI+II_OXPHOS). […]
(§4) Specifically, after the HF model mice were underwent a left coronary artery ligation operation, an aqueous solution (50 mg/L) containing ALA (≥98%, commercially available from Sigma Aldrich) was administered by forced drinking (6 to 8 mg/kg/day), and on the 28th day after the operation, the mitochondrial functions were measured using echocardiography and a mitochondrial respiratory capacity measurement device. […]

In another experiment the test system is mitochondrial complex IV. Put plainly: Respiratory capacity related to complex IV in myocardial mitochondria of HF model mice given ALA. The note with it: ALA 50 mg/L in drinking water (6 to 8 mg/kg/day), day 28 after operation. In kind it is in vivo. How it is done: as §1
(8) The respiratory capacity when 2 mmol/L of ascorbic acid and 0.5 mmol/L of TMPD (N,N,N′,N′-tetramethyl-p-phenylenediamine), which are substrates of mitochondrial complex IV, were added was measured. Next, the respiratory capacity when 100 mmol/L of sodium azide as an inhibitor was added was measured, and a difference therebetween was calculated (CIV_OXPHOS).
as §2

Experiment [3] relates to HF model mice. Put plainly: Echocardiography of HF model mice given ALA. In kind it is in vivo. To be noted: HF model mice with ALA vs without ALA; 6 to 8 mg/kg/day; day 28 after operation. How it is done: Echocardiography was performed under anesthesia ([…] 8 μL/gBW, intraperitoneal administration) with a short duration of action and least impact on the cardiovascular system. The limbs and tail were fixed in a lying position to an examination table with a tape and the anterior chest wall of the mice was depilated with a depilatory cream. Using an ultrasonic diagnostic device and a 12 MHz linear probe, optimal 2D parasternal short-axis images were visualized at the papillary muscle level. Switching to an M mode method was performed, recording was performed at a recording paper speed of 40 mm/s, and a heart rate, a left ventricular end-diastolic dimension, a left ventricular end-systolic dimension, a left ventricular anterior wall thickness, a left ventricular posterior wall thickness, and a left ventricular fractional shortening were measured.
(§5) The left anterior descending coronary artery of the heart of 10- to 12-week old male C57BL/6J mice (body weight of 23 to 26 g) was ligated to cause myocardial infarction (MI). The body weight of the mice was measured before the operation, a mixed anesthetic containing 3 types including 0.3 mg/kg BW of medetomedine hydrochloride, 4.0 mg/kg BW of midazolam, and 5.0 mg/kg BW of butorphanol tartrate was intraperitoneally administered, and it was confirmed that the depth of anesthesia was sufficient. […]

Experiment [4] deals with HF model mice. Put plainly: Exercise capacity (treadmill) of HF model mice given ALA. In kind it is in vivo. To be noted: HF model mice with ALA vs without ALA; treadmill run until exhaustion. The protocol: as §5, §4
In addition, the exercise capacities of the HF model mice without administration of ALA and the HF model mice to which ALA was administered were examined. The exercise capacity was expressed as a product of an exercise time and a body weight. The exercise time was measured using a small animal treadmill, and mice were at rest for 10 minutes, and w-up for 10 minutes (6 m/min, inclination of 10 degrees), and then forced to run until exhaustion by increasing a load (2 m/2 min). […]

Experiment [5] relates to H9c2 cells. Put plainly: Succinylation level of mitochondrial proteins of glycine-treated H9c2 cells. Type of experiment: cell-based. How it is done: (§6) When glycine was used, glycine was added to the culture medium for cultured H9c2 cells so that the concentration was 100 mM, and the cells were cultured for 6 hours. After culturing, the cells were collected and mitochondria were isolated. Then, the succinylation level of the mitochondrial proteins was measured by WB.
(§7) In addition, in the heme synthesis process, glycine and succinyl-CoA reacted to synthesize ALA. […] The succinylation level and the respiratory capacity related to mitochondrial complex II were examined.

Experiment [6] has as its system H9c2 cells. Nature of the experiment: Respiratory capacity related to mitochondrial complex II in glycine-treated H9c2 cells. Type of experiment: cell-based. The protocol: as §6, §7
For the next experiment, the system named is mitochondrial proteins. Nature of the experiment: Succinylation assay of mitochondrial proteins (isolated mouse heart mitochondria, western blotting). In kind it is biochemical, mice. The protocol:
(§8) First, the heart (left ventricle) extracted from euthanized mice under anesthesia was immersed in a tissue preservation solution BIOPS (2.77 mM CaK2EGTA, 7.23 mM K2EGTA, 5.77 mM Na2ATP, 6.56 mM MgCl2/6H2O, 20 mM taurine, 15 mM Na2 phosphocreatine, 20 mM imidazole, 0.5 mM dithiothreitol, 50 mM MES hydrate, pH 7.1), and then shredded in a tissue isolation buffer (100 mM sucrose, 100 mM KCl, 50 mM tris-HCl, 1 mM KH2PO4, 0.1 mM EGTA, 0.2% bovine serum albumin, pH 7.4). Protease was added to this shredded product to cause an enzyme reaction and homogenization was then performed. The obtained homogenized solution was centrifuged to remove the supernatant, and the precipitate was washed with a tissue isolation buffer twice. A suspension buffer (225 mM mannitol, 75 mM sucrose, 10 mM tris-HCl, 0.1 mM EDTA, pH 7.4) was added to the washed precipitate and the precipitate was dissolved.
[…] Then, the succinylation level of the mitochondrial proteins was measured by western blotting (WB).
Specifically, first, succinyl-CoA (0, 1, 3, or 10 mM) was added to the mitochondria collected from the left ventricle of wild type mice (C57BL/6J), succinylation assay was performed, and the succinylation level of the mitochondrial proteins (the relative amount when the amount of succinylation proteins without addition of succinyl-CoA (0 mM) was set as 1) was examined. […]
In general terms: A western blot detects proteins with antibodies after separation by electrophoresis.

The target in experiment [7] is T1, mitochondrial complex II (Mus musculus, UniProt Q8K2B3+Q9CQA3+Q9CXV1+Q9CZB0).
T1 construct: from tissue; host or cells: mitochondria isolated from the left ventricle (myocardium) of C57BL/6J mice (wild type, sham control or HF model)
T1 sequence (Q8K2B3 43-664): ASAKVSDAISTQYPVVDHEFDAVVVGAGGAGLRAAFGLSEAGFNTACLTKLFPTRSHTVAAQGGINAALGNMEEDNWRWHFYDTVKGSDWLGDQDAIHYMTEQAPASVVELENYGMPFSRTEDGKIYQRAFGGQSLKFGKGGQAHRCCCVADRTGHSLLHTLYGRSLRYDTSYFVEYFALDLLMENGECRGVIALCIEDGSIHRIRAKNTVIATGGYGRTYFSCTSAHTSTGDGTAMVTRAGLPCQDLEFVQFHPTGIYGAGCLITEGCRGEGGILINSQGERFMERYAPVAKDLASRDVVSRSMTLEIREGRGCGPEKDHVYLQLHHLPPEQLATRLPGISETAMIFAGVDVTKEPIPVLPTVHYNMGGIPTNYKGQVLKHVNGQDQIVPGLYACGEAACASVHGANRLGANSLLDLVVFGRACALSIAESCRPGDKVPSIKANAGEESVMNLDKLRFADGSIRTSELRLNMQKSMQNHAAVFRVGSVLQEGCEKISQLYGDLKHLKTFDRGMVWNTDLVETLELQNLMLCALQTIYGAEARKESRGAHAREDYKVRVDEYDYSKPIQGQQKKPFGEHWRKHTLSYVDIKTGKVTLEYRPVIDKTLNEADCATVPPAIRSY
T1 sequence (Q9CQA3 29-282 limits assumed): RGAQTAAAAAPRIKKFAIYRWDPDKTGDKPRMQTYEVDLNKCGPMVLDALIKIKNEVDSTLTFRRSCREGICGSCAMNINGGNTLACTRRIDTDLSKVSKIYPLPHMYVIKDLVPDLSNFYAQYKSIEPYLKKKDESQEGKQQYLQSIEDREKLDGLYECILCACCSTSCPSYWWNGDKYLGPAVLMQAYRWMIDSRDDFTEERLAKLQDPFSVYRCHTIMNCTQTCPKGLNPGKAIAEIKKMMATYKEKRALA
T1 sequence (Q9CZB0 30-169): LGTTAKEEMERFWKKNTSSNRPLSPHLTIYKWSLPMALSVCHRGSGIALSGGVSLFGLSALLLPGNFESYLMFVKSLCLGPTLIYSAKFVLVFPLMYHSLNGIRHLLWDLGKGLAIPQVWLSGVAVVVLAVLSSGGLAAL
T1 sequence (Q9CXV1 57-159): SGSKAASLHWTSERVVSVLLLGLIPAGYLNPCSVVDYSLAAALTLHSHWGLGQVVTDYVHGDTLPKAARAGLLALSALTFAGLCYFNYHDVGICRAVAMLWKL
Put plainly: Mitochondrial respiratory capacity related to complex II after adding succinyl-CoA to isolated mitochondria (high-resolution respiration measurement). In kind it is biochemical. To be noted: mitochondria isolated from wild type mice. The protocol:
as §8, with “A suspension buffer (225 mM mannitol, 75 mM sucrose, 10 mM tris-HCl, 0.1 mM EDTA, pH 7.4) was added to the washed precipitate and the precipitate was dissolved.” left out
A mitochondrial respiratory capacity (oxidative phosphorylation: OXPHOS) was measured by a high-resolution respiration measurement method. […] An oxygen consumption amount was calculated using Datlab software, and in this case, correction was performed per tissue weight or per mitochondrion. […]
(2) 10 mmol/L of glutamic acid, 2 mmol/L of malic acid, and 5 mmol/L of pyruvic acid, which are substrates related to mitochondrial complex I, were added, and the oxygen consumption amount was measured (CI_OXPHOS).
as §3

Experiment [8] has as its system mitochondrial complex II. Nature of the experiment: Expression level of mitochondrial complex II per mitochondrion (blue native method, anti-SDHA). Type of experiment: biochemical. To be noted: mitochondria isolated from HF model mice treated with 1 mM succinyl-CoA. The protocol:
Based on the results so far, it was clearly understood that the respiratory capacity related to mitochondrial complex II could be controlled by the expression level of mitochondrial complex II per mitochondrion. Therefore, for the mitochondria isolated from the control mice and the HF model mice and the mitochondria isolated from the HF model mice and then treated with 1 mM succinyl-CoA, the expression level of mitochondrial complex II per mitochondrion was evaluated using anti-SDHA mouse monoclonal antibodies (1:1,000, ab14715, commercially available from Abeam) by a blue native method.

The mark [9] stands for this setting: H9c2 cells treated with glycine, succinyl-CoA added.

Here are results for 3 compounds from patent US12013389B2, “Method of evaluating pathological conditions of heart failure” (NATIONAL UNIVERSITY CORPORATION HOKKAIDO UNIVERSITY, priority 2018, dated 2024).

As to `NCC(=O)CCC(=O)O` [ALA, 5-aminolevulinic acid], the “respiratory capacity related to mitochondrial complex II” value with mitochondrial complex II [1] is on record as “improved”. Moreover, in experiment [2], the “respiratory capacity related to mitochondrial complex I and mitochondrial complex II” value was “improved”. The “respiratory capacity related to mitochondrial complex IV” value in the experiment on mitochondrial complex IV was “improved”. Besides, in the experiment on HF model mice [3], the “left ventricular fractional shortening (% FS)” value is “significantly improved”. Further, the “exercise capacity (exercise time x body weight)” value in the experiment with HF model mice [4] is given as “significantly improved”.
For the compound `NCC(=O)O` [glycine, reference compound], the “succinylation level of mitochondrial proteins” value in the experiment with H9c2 cells [5] (H9c2 cells treated with glycine (100 mM, 6 hours)) is on record as “decreased”. The “respiratory capacity related to mitochondrial complex II” value in the experiment with H9c2 cells [6] (cells treated with glycine) is listed as “decreases”.
With `CC(C)(COP(=O)(O)OP(=O)(O)OC[C@H]1O[C@@H](n2cnc3c(N)ncnc32)[C@H](O)[C@@H]1OP(=O)(O)O)[C@@H](O)C(=O)NCCC(=O)NCCSC(=O)CCC(=O)O` [succinyl-CoA], the “succinylation in the mitochondrial protein” value in the experiment on mitochondrial proteins (mitochondria from left ventricle of wild type mice (C57BL/6J), succinyl-CoA 1, 3 or 10 mM, relative to 0 mM) is recorded as “increased”. For the same compound, the “succinylation level of mitochondrial proteins” value in the experiment on mitochondrial proteins (mitochondria isolated from HF model mice, 0.1 mM succinyl-CoA) was “improved”; in the experiment on H9c2 cells [5] (setting [9]), “improved”. Further, the “respiratory capacity related to mitochondrial complex II” value on mitochondrial complex II [7] (1 mM succinyl-CoA) is recorded as “increased”; at mitochondrial complex II [7] (10 mM succinyl-CoA) it was “significantly decreased”; in the experiment with H9c2 cells [6] (setting [9]) it was “improved”. In addition, the “amount of mitochondrial complex II (expression level per mitochondrion)” value in the experiment with mitochondrial complex II [8] is “remained reduced”.
